Values quoted from earlier work in US20200113824A1, “DISPENSING CAP CONTAINING A SOLUBILISATE OF A […] ACTIVE AGENT OR DIETARY SUPPLEMENT” (priority 2017, published 2020).

How the values were obtained:
[1] = molecular target: P-glycoprotein (Homo sapiens, UniProt P08183)
[2] = molecular target: human CYP3A4 (Homo sapiens, UniProt P08684)
[3] = system: murine gut microbiota; settings: promoting obesity and inflammatory bowel diseases

Chain of P-glycoprotein (P08183 whole entry): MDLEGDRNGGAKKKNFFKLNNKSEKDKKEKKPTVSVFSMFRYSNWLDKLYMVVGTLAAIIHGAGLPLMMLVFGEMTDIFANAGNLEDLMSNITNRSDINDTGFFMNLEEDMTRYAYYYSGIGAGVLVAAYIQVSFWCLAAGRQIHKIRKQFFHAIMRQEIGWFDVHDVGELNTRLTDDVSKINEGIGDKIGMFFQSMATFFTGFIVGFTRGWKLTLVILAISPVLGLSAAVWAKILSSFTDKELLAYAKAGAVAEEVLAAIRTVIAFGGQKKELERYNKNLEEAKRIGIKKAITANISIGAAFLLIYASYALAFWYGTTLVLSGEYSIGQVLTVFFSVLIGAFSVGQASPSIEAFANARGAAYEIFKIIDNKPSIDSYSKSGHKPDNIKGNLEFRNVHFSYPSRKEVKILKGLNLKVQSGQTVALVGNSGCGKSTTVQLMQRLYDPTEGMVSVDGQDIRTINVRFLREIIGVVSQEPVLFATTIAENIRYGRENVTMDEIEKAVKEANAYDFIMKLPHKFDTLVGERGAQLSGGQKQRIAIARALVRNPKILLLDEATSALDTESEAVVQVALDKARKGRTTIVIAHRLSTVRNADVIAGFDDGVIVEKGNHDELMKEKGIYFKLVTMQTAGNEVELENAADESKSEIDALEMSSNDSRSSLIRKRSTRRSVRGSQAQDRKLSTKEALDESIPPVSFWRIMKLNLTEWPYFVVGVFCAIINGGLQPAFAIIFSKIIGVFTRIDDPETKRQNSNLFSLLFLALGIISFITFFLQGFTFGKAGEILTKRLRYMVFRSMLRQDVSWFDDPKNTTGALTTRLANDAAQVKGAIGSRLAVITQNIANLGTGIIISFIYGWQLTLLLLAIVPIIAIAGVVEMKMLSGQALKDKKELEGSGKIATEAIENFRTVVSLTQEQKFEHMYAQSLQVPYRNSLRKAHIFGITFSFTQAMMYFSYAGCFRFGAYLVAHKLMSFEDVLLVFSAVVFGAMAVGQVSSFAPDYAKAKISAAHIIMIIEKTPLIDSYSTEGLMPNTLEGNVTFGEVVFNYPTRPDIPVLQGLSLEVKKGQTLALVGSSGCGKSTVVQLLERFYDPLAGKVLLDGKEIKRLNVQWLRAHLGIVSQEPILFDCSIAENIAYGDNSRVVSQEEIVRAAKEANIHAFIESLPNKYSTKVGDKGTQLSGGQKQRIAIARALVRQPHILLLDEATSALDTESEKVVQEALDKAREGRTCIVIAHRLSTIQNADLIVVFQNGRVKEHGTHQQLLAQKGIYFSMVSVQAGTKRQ
Chain of human CYP3A4 (P08684 whole entry): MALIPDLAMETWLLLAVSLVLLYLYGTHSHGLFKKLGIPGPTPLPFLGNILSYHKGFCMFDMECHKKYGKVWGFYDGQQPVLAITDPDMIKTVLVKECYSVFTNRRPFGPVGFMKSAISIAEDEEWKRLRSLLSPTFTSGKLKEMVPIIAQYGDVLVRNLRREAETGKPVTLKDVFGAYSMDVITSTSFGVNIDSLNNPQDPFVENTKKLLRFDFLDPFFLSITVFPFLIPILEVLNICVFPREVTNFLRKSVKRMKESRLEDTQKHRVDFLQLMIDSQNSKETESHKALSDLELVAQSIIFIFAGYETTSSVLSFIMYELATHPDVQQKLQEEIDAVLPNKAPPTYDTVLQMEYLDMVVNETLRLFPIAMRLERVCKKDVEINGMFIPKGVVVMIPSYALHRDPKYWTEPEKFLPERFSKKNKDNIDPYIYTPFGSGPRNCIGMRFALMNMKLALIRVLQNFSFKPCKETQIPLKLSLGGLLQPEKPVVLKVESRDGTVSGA

Compound | inhibition of P-glycoprotein [1] | inhibition of human CYP3A4 [2] | effects on murine gut microbiota [3]
O=C(C=CC=Cc1ccc2c(c1)OCO2)N1CCCCC1 [Piperine, 1-[5-(1,3-benzodioxol-5-yl)-1-oxo-2,4-pentadienyl]piperidine] | inhibit | inhibit | –
Polysorbate-80 | – | – | detrimental effects
